This is an account of results in patent EP1073639B1, “QUINOLINE DERIVATIVES” (Active Biotech AB, priority 1998, dated 1999).

Structures are written as SMILES. Marks after values point to notes of the source that are not given here.

Holding throughout (type): in vivo
In one series the test system is SJL/N female mice. The series can be described thus: Acute experimental autoimmune encephalomyelitis (aEAE). The conditions noted are these: for % aEAE Inhibition: mice.
The next series concerns DBA/1 male mice. The series can be described thus: Collagen induced arthritis (type II collagen). The conditions noted are these: dose 5 mg/kg p.o.; for Mean score day 35: day 35, arthritic score. How it is done:
Collagen induced arthritis
DBA/1 male mice between 8 to 10 weeks of age were used for the experiments. On day 0 the mice were immunized intradermally at the base of the tail with bovine type II collagen (100 µg/mouse) in Freund's complete adjuvant. The treatment was given per os daily on days 3 to 7, 10 to 14, 17 to 21, 24 to 28 and 31 to 35. Fifteen days after immunization mice were inspected for signs of arthritis. The animals were inspected three times a week. Every second or third day individual paws of the arthritic animals were scored by a scale from 0-4 (0 = no arthritis, 1 = arthritis in one of the interphalangeal, metatarsophalangeal or intercarpal joints, 2 = two arthritic joints, 3 = three arthritic joints, 4 = as in 3 but with more severe redness and swelling of the paw). The score for each paw was added to give a maximal attainable score of 16 for each mouse.

The next series relates to female rats. The series can be described thus: Teratogenic effects in the rat (embryotoxicity, external malformations). The conditions noted are these: for % malformed foetuses: rat.
In a further series the test system is beagle dogs. The series can be described thus: Beagle Pain Syndrome (BPS). The note with it: result in words. As for the experimental part:
Beagle Pain Syndrome (BPS)
The compounds were administrated intravenously to beagle dogs. The dosage was given for five consecutive days. The dogs were evaluated for clinical and laboratory signs of the pain syndrome, e.g., fever, increased erythrocyte sedimentation rate (ESR), […] (AP), induction of acute phase proteins and vasculitis.

A short description of a further series: Clearance in dogs. The conditions noted are these: higher than roquinimex.

In the case of `CCN(C(=O)c1c(O)c2ccccc2n(C)c1=O)c1ccccc1` [Compound F, N-ethyl-N-phenyl-1,2-dihydro-4-hydroxy-1-methyl-2-oxo-quinoline-3-carboxamide, reference compound], in the series on SJL/N female mice (5 mg/kg p.o.), the “% aEAE Inhibition” value worked out at 63%.
Regarding `CCN(C(=O)c1c(O)c2c(Br)cccc2n(C)c1=O)c1ccccc1` [D, N-ethyl-N-phenyl-1,2-dihydro-4-hydroxy-5-bromo-1-methyl-2-oxo-quinoline-3-carboxamide], in the series with DBA/1 male mice, the “Incidence (%) day 35” value was 30% and the “Mean score day 35” value is listed as 0.4.
Take `CN(C(=O)c1c(O)c2ccccc2n(C)c1=O)c1ccccc1` [Roquinimex, N-methyl-N-phenyl-1,2-dihydro-4-hydroxy-1-methyl-2-oxo-quinoline-3-carboxamide, reference compound]: the “Incidence (%) day 35” value in the series on DBA/1 male mice was found to be 50%. Further, the “Mean score day 35” value with DBA/1 male mice is 1.7. In addition, the “% malformed foetuses” value in the series on female rats (10 mg/kg, route p.o.) is given as 9^b) %; in the series on female rats (30 mg/kg, route p.o.), 30^b) %. Moreover, the “teratogenic effect in the rat” value in the series on female rats (result in words) is “teratogenic”. Besides, the “% aEAE Inhibition” value in the series on SJL/N female mice (0.2 mg/kg p.o.) was determined as 35%; with SJL/N female mice (1 mg/kg p.o.), 40%; in the series with SJL/N female mice (5 mg/kg p.o.), 69%. Besides, the “inhibition of EAE in mice” value with SJL/N female mice (5 mg/kg, treatment control) worked out at 70%. In addition, the “Beagle Pain Syndrome (BPS)” value with beagle dogs was “induce the Beagle Pain Syndrome”.
As for `Cn1c(=O)c(C(=O)Nc2ccccc2)c(O)c2ccccc21` [A], the “clearance (Cl) in comparison with roquinimex” value in the series “Clearance in dogs” turned out to be 800 fold.
For `CCN(C(=O)c1c(O)c2c(OC)cccc2n(C)c1=O)c1ccccc1` [Compound C, N-ethyl-N-phenyl-1,2-dihydro-4-hydroxy-5-methoxy-1-methyl-2-oxo-quinoline-3-carboxamide], the “% aEAE Inhibition” value in the series with SJL/N female mice (0.04 mg/kg p.o.) was 48%; with SJL/N female mice (0.2 mg/kg p.o.), 71%; with SJL/N female mice (1 mg/kg p.o.), 73%; in the series on SJL/N female mice (5 mg/kg p.o.), 90%.
As to `CN(C(=O)c1c(O)c2c(Cl)cccc2n(C)c1=O)c1ccccc1` [Compound G, N-methyl-N-phenyl-1,2-dihydro-4-hydroxy-5-chloro-1-methyl-2-oxo-quinoline-3-carboxamide], the “% malformed foetuses” value with female rats (6 mg/kg, route s.c.) was 37^a) %.
In the case of `CCN(C(=O)c1c(O)c2c3c(ccc2n(C)c1=O)OCO3)c1ccccc1` [E, N-ethyl-N-phenyl-1,2-dihydro-4-hydroxy-5,6-methylenedioxy-1-methyl-2-oxo-quinoline-3-carboxamide], in the series with DBA/1 male mice, the “Incidence (%) day 35” value amounted to 10% and the “Mean score day 35” value came to 0.1.
For `CCN(C(=O)c1c(O)c2c(Cl)cccc2n(C)c1=O)c1ccccc1` [Compound B, N-ethyl-N-phenyl-1,2-dihydro-4-hydroxy-5-chloro-1-methyl-2-oxo-quinoline-3-carboxamide], the “% malformed foetuses” value with female rats (6 mg/kg, route s.c.) is reported as 0^a) %; with female rats (30 mg/kg, route s.c.) it was 1^a) %. The “% aEAE Inhibition” value in the series with SJL/N female mice (0.04 mg/kg p.o.) was 60%; in the series with SJL/N female mice (0.2 mg/kg p.o.), 74%; with SJL/N female mice (1 mg/kg p.o.), 98%; in the series with SJL/N female mice (5 mg/kg p.o.) it was 96%.
